Reference: PubChem BioAssay (NCI)
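Test compounds were applied to cells in 96-well plates for 48 hours at 5 doses. At the GI50, growth is halved. The concentration for full growth arrest is given as TGI.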

Assays:
Experiment in all cases: NCI tumour cell line growth inhibition, 48 h
HCT-15 colon = tested on: HCT-15 colon
SK-MEL-28 melanoma = tested on: SK-MEL-28 melanoma
HT29 colon = tested on: HT29 colon
LOX IMVI melanoma = tested on: LOX IMVI melanoma
HOP-62 NSCLC = tested on: HOP-62 NSCLC
SNB-75 CNS = tested on: SNB-75 CNS
SR leukemia = tested on: SR leukemia
MDA-MB-435 = tested on: MDA-MB-435
RPMI-8226 leukemia = tested on: RPMI-8226 leukemia
SK-OV-3 ovarian = tested on: SK-OV-3 ovarian

Question: Which TGI (HCT-15 colon) does the source give for `O=C1/C(=C(/Br)I)c2ccccc2-c2ccccc21` here?
Answer: Its TGI is 16.6 µM.

Question: And the TGI (SK-MEL-28 melanoma)?
Answer: The TGI was 42.8 µM.

Question: And the TGI (HT29 colon)?
Answer: The TGI was 18.3 µM.

Question: And the TGI (LOX IMVI melanoma)?
Answer: Its TGI is 12.2 µM.

Question: What about the TGI (HOP-62 NSCLC) of the same molecule?
Answer: The TGI was 36.6 µM.

Question: What about the TGI (SNB-75 CNS) of the same molecule?
Answer: Its TGI is 29.7 µM.

Question: And the TGI (SR leukemia)?
Answer: The TGI was over 30.5 µM.

Question: And the TGI (MDA-MB-435)?
Answer: The TGI was 22 µM.

Question: What about the TGI (RPMI-8226 leukemia) of the same molecule?
Answer: The TGI was 8.37 µM.

Question: And the TGI (SK-OV-3 ovarian)?
Answer: Its TGI is 29.8 µM.

Question: For `CCC1(O)CC(O)c2c(O)c3c(c(O)c2C1C(=O)OC)C(=O)c1cccc(O)c1C3=O` (stereo unspecified), which TGI (HCT-15 colon) is on record?
Answer: Its TGI is 21.1 µM.

Question: What about the TGI (SK-MEL-28 melanoma) of the same molecule?
Answer: Its TGI is 75.4 µM.

Question: What about the TGI (HT29 colon) of the same molecule?
Answer: The TGI was 14.1 µM.

Question: What about the TGI (LOX IMVI melanoma) of the same molecule?
Answer: Its TGI is 9.92 µM.

Question: And the TGI (HOP-62 NSCLC)?
Answer: The TGI was 16.6 µM.

Question: And the TGI (SNB-75 CNS)?
Answer: Its TGI is 18.5 µM.

Question: And the TGI (SR leukemia)?
Answer: The TGI was 5.91 µM.

Question: What about the TGI (MDA-MB-435) of the same molecule?
Answer: The TGI was over 100 µM.

Question: And the TGI (RPMI-8226 leukemia)?
Answer: The TGI was over 23.1 µM.

Question: What about the TGI (SK-OV-3 ovarian) of the same molecule?
Answer: The TGI was over 36.1 µM.

Question: How did the TGI (HCT-15 colon) turn out when `C=C(C)C(=O)O[C@H]1CC2(CO)O[C@@H]2CC/C(COC(C)=O)=C/C2OC(=O)C(=C)[C@@H]21` (stereo partly specified) was run?
Answer: Its TGI is over 96.7 µM.

Question: What about the TGI (SK-MEL-28 melanoma) of the same molecule?
Answer: Its TGI is over 64.6 µM.

Question: And the TGI (HT29 colon)?
Answer: Its TGI is over 100 µM.

Question: And the TGI (LOX IMVI melanoma)?
Answer: Its TGI is over 60 µM.

Question: What about the TGI (HOP-62 NSCLC) of the same molecule?
Answer: The TGI was over 100 µM.

Question: What about the TGI (SNB-75 CNS) of the same molecule?
Answer: The TGI was over 100 µM.

Question: What about the TGI (SR leukemia) of the same molecule?
Answer: Its TGI is 43.3 µM.

Question: What about the TGI (MDA-MB-435) of the same molecule?
Answer: Its TGI is over 61.3 µM.

Question: What about the TGI (RPMI-8226 leukemia) of the same molecule?
Answer: The TGI was 31.3 µM.

Question: What about the TGI (SK-OV-3 ovarian) of the same molecule?
Answer: The TGI was over 100 µM.

Question: Which results are given for `O=C(c1ccccc1)c1ccc2nc(-c3c(Cl)c(Cl)c(Cl)c(Cl)c3C(=O)Nc3ccco3)[nH]c2c1`?
Answer: TGI (HCT-15 colon): > 100 µM; TGI (SK-MEL-28 melanoma): > 100 µM; TGI (HT29 colon): > 100 µM; TGI (LOX IMVI melanoma): > 100 µM; TGI (HOP-62 NSCLC): > 100 µM; TGI (SNB-75 CNS): > 100 µM; TGI (SR leukemia): 58.8 µM; TGI (MDA-MB-435): 42.7 µM; TGI (RPMI-8226 leukemia): > 100 µM; TGI (SK-OV-3 ovarian): > 100 µM

Question: How did the TGI (HCT-15 colon) turn out when `C#Cc1cccc(Nc2ncnc3cc(OCCOC)c(OCCOC)cc23)c1` was run?
Answer: Its TGI is over 100 µM.

Question: And the TGI (SK-MEL-28 melanoma)?
Answer: Its TGI is over 100 µM.

Question: And the TGI (HT29 colon)?
Answer: Its TGI is over 100 µM.

Question: And the TGI (LOX IMVI melanoma)?
Answer: The TGI was over 100 µM.

Question: What about the TGI (HOP-62 NSCLC) of the same molecule?
Answer: The TGI was 59.7 µM.

Question: And the TGI (SNB-75 CNS)?
Answer: Its TGI is 46.7 µM.

Question: And the GI50 (SR leukemia)?
Answer: The GI50 was 9.98 µM.

Question: And the TGI (SR leukemia)?
Answer: The TGI was over 100 µM.

Question: And the TGI (MDA-MB-435)?
Answer: Its TGI is over 100 µM.

Question: And the TGI (RPMI-8226 leukemia)?
Answer: The TGI was over 74.7 µM.

Question: And the TGI (SK-OV-3 ovarian)?
Answer: Its TGI is 5.2 µM.

Question: Which TGI (HCT-15 colon) does the source give for `CCCOC1OC(CS(=O)(=O)O)C(OC(C)=O)C(OC(C)=O)C1OC(C)=O` (stereo unspecified) here?
Answer: Its TGI is over 100 µM.

Question: What about the TGI (SK-MEL-28 melanoma) of the same molecule?
Answer: The TGI was over 100 µM.

Question: What about the TGI (HT29 colon) of the same molecule?
Answer: The TGI was over 100 µM.

Question: And the TGI (LOX IMVI melanoma)?
Answer: Its TGI is over 100 µM.

Question: What about the TGI (HOP-62 NSCLC) of the same molecule?
Answer: The TGI was over 100 µM.

Question: And the TGI (SNB-75 CNS)?
Answer: The TGI was over 100 µM.

Question: What about the TGI (SR leukemia) of the same molecule?
Answer: Its TGI is over 100 µM.

Question: And the TGI (MDA-MB-435)?
Answer: Its TGI is over 100 µM.

Question: What about the TGI (RPMI-8226 leukemia) of the same molecule?
Answer: Its TGI is over 100 µM.

Question: What about the TGI (SK-OV-3 ovarian) of the same molecule?
Answer: Its TGI is over 100 µM.

Question: For `CCOC(=O)c1c(SCCN2CCCCC2)n(-c2ccccc2)c(=S)n(-c2ccccc2)c1=O`, which TGI (HCT-15 colon) is on record?
Answer: The TGI was 9.82 µM.

Question: And the TGI (SK-MEL-28 melanoma)?
Answer: The TGI was 24 µM.

Question: And the TGI (HT29 colon)?
Answer: Its TGI is 32.1 µM.

Question: And the TGI (LOX IMVI melanoma)?
Answer: The TGI was 26.2 µM.

Question: And the TGI (HOP-62 NSCLC)?
Answer: Its TGI is 40.8 µM.

Question: And the TGI (SNB-75 CNS)?
Answer: The TGI was 37.1 µM.

Question: What about the TGI (SR leukemia) of the same molecule?
Answer: The TGI was over 20.4 µM.

Question: What about the TGI (MDA-MB-435) of the same molecule?
Answer: The TGI was 31.5 µM.

Question: What about the TGI (RPMI-8226 leukemia) of the same molecule?
Answer: Its TGI is over 21.9 µM.

Question: And the TGI (SK-OV-3 ovarian)?
Answer: The TGI was over 100 µM.

Question: With `CCOC(=O)COC1=Nc2cc(OC)c(OC)c3nc(Cl)cc(c23)C1=O` as the molecule, how does the TGI (HCT-15 colon) read?
Answer: The TGI was 6.16 µM.

Question: And the TGI (SK-MEL-28 melanoma)?
Answer: Its TGI is 4.01 µM.

Question: What about the TGI (HT29 colon) of the same molecule?
Answer: The TGI was 6.37 µM.

Question: And the TGI (LOX IMVI melanoma)?
Answer: Its TGI is 4.23 µM.

Question: And the TGI (HOP-62 NSCLC)?
Answer: The TGI was 7.97 µM.

Question: And the TGI (SNB-75 CNS)?
Answer: Its TGI is 5.87 µM.

Question: What about the TGI (SR leukemia) of the same molecule?
Answer: Its TGI is over 21.5 µM.

Question: What about the TGI (MDA-MB-435) of the same molecule?
Answer: The TGI was 2.93 µM.

Question: And the TGI (RPMI-8226 leukemia)?
Answer: The TGI was over 100 µM.

Question: And the TGI (SK-OV-3 ovarian)?
Answer: Its TGI is 24.1 µM.

Question: `C=C1CC(Cn2cc(Br)c(=O)[nH]c2=O)(c2ccc(Br)cc2)OC1=O` (stereo unspecified) was tested. Which TGI (HCT-15 colon) did it give?
Answer: Its TGI is 3.85 µM.

Question: What about the TGI (SK-MEL-28 melanoma) of the same molecule?
Answer: Its TGI is 16.7 µM.

Question: What about the TGI (HT29 colon) of the same molecule?
Answer: Its TGI is 7.89 µM.

Question: And the TGI (LOX IMVI melanoma)?
Answer: The TGI was 3.64 µM.

Question: And the TGI (HOP-62 NSCLC)?
Answer: Its TGI is 31 µM.

Question: And the TGI (SNB-75 CNS)?
Answer: The TGI was 26.7 µM.

Question: What about the TGI (SR leukemia) of the same molecule?
Answer: Its TGI is over 22.6 µM.

Question: And the TGI (MDA-MB-435)?
Answer: The TGI was 10.4 µM.

Question: And the TGI (RPMI-8226 leukemia)?
Answer: The TGI was 1.61 µM.

Question: What about the TGI (SK-OV-3 ovarian) of the same molecule?
Answer: The TGI was 24.6 µM.

Question: Which results are given for `CN1CCCC(OC(=O)c2cc3cc(CCl)ccc3oc2=O)C1` (stereo unspecified)?
Answer: TGI (HCT-15 colon): 51.9 µM; TGI (SK-MEL-28 melanoma): 50.3 µM; TGI (HT29 colon): 46.9 µM; TGI (LOX IMVI melanoma): 34.3 µM; TGI (HOP-62 NSCLC): 67.7 µM; TGI (SNB-75 CNS): 52.8 µM; TGI (SR leukemia): 70.1 µM; TGI (MDA-MB-435): 41.6 µM; TGI (RPMI-8226 leukemia): 89.1 µM; TGI (SK-OV-3 ovarian): > 100 µM

Question: Which results are given for `CCOC(=O)c1nc2ccccc2nc1Nc1ccc(F)cc1`?
Answer: TGI (HCT-15 colon): > 100 µM; TGI (SK-MEL-28 melanoma): > 100 µM; TGI (HT29 colon): > 100 µM; TGI (LOX IMVI melanoma): > 100 µM; TGI (HOP-62 NSCLC): 38.2 µM; TGI (SNB-75 CNS): 18.5 µM; TGI (SR leukemia): > 100 µM; TGI (MDA-MB-435): > 100 µM; TGI (RPMI-8226 leukemia): > 100 µM; TGI (SK-OV-3 ovarian): 37.7 µM

Question: What does the source list for `COc1c(-c2ccc(F)cc2)oc2cc(O)cc(O)c2c1=O`?
Answer: TGI (HCT-15 colon): 38 µM; TGI (SK-MEL-28 melanoma): > 100 µM; TGI (HT29 colon): 44.6 µM; TGI (LOX IMVI melanoma): 54.5 µM; TGI (HOP-62 NSCLC): 38.4 µM; TGI (SNB-75 CNS): 64 µM; TGI (SR leukemia): > 100 µM; TGI (MDA-MB-435): 93.8 µM; TGI (RPMI-8226 leukemia): > 100 µM; TGI (SK-OV-3 ovarian): > 100 µM

Question: Which results are given for `CN(c1ccc(Cl)cc1)S(=O)(=O)c1ccccc1`?
Answer: TGI (HCT-15 colon): > 100 µM; TGI (SK-MEL-28 melanoma): > 100 µM; TGI (HT29 colon): > 100 µM; TGI (LOX IMVI melanoma): > 100 µM; TGI (HOP-62 NSCLC): > 100 µM; TGI (SNB-75 CNS): > 100 µM; TGI (SR leukemia): > 100 µM; TGI (MDA-MB-435): > 100 µM; TGI (RPMI-8226 leukemia): > 100 µM; TGI (SK-OV-3 ovarian): > 100 µM
